We go through 17 compounds from US20030220373A1, “Therapeutic uses of PPAR mediators” (priority 2000, published 2003).

Series [1] has as its system ABC1 expression. In words: ABC1 up-regulation in human primary hepatocytes (RNA analysis). It is filed as cell-based. The conditions noted are these: human primary hepatocytes (FIG. 4). The procedure:
Assay Example 2: ABC 1 Up-regulation in Human Hepatocytes and Human Macrophages Derived Monocytes by Fenofibric Acid, and for Wy 14,643 and Related Cholesterol Efflux in Macrophages Human liver specimens are collected from healthy multiorgan donors for transplantation who died after severe traumatic brain injury. Hepatocytes are obtained by a two-step collagenase perfusion (REF). Cells are resuspended in minimal essential medium with Earl's salts with 10% FCS, 2 mM glutamine, […] gentamycin, seeded at density of 1.5×10^5 cells/cm^2 in plastic culture dishes coated with 20 mg rat tail collagene type I (Sigma).Medium is renewed after 4 hours of adhesion. After 20 hours the medium is discarded and differents compounds added at the indicated concentrations in serum-free medium. Total cellular RNA is extracted from differentated macrophages treated for 6 hours with different compounds using the RNA plus kit (Bioprobe System, Montreuil, france). RNA from human hepatocytes are prepared as described by Chomczynski and Sacchi. For RT-PCR analysis, total RNA is reverse transcribed using random hexamer primers and Superscript reverse transcriptase (Life Technologies) as sebsequently amplified by PCR. The resulting products are separated on a 1% agrose gel and stained with ethidium bromide.

Series [2] deals with ABC1 expression. In words: ABC1 up-regulation in human THP-1 cells by PPAR mediators (Northern blotting; also quantitative PCR Taqman). In kind it is cell-based. The settings on record: for up-regulation of ABC1 expression: treatment at 1 and 10 μM, Northern blotting (FIG. 1, FIG. 2). The procedure: THP-1 cells, a human monocytic cell line, are maintained in RPMI with 10% FCS (fetal calf serum)/[…] gentamycin/25 mM Hepes. Cells are plated at approximately 1×10^5 per cm^2 in RPMI/10% charcoal-stripped FCS (Hyclone) the presence or absence of 100 ng/ml PMA (phorbol myritic acid)(Gibco BRL) and the indicated concentrations of test compound or DMSO (dimethyl sulfoxide). Test compounds are refreshed daily. Alternatively, cells are incubated with […] AcLDL (acetylated LDL) as positive control. After 48 or 72 hours, cellular RNA is isolated with Trizol® (Gibco) according to the manufacturer's instructions. Total RNA ([…]) is subjected to Northern blotting. The fragment used as a probe is a 431bp PCR product of ABC1 corresponding to nucleotides (nt's) 3306-3737 of Genbank Ace # AJ012376 (T. Langmann et al,1999, BBRC 257, 29-33). The sequences of the primers usd to generate the fragment are: […] nt. pos 3306-3326 (forward); […] nt. pos 3737-3711 (reverse). Blots are hybridized with this probe labelled with [a32P]dCTP (Amersham) with ExpressHyb® (Clontech, Palo Alto Calif.) according to manufacturer's protocol, washed, and exposed to X-ray film. Resulting signals are quantitated by densitometry.
A representative example of a Northern blotting analysis is represented in FIG. 1 and corresponding graph bar in FIG. 2.
For orientation: Real-time PCR tracks product formation cycle by cycle.

In the case of `Cc1cccc(Nc2cc(Cl)nc(SCC(=O)O)n2)c1C` [Wy 14,643, pyrinixic acid], in series [1], the ABC1 up-regulation result was “ABC1 up-regulation”.
Take `c1cc(OCc2ccc3ccccc3n2)cc(OCc2ccccc2Cc2nnn[nH]2)c1` [Example 28, 5-(2-(3-(2-quinolinylmethyloxy)phenoxymethyl)benzyl)tetrazole]: the melting point (as a rule, the temperature of the solid-liquid transition) fell in the range of 145.5 to 147 °C.
With `N#Cc1cccc(OCc2cccc(OCc3ccc4ccccc4n3)c2)c1` [Example 7, 3-[3-(2-quinolinylmethyloxy)benzyloxy]benzonitrile], the melting point lay within 86 to 87 °C.
With `c1cc(COc2ccc(OCc3ccc4ccccc4n3)cc2)cc(OCc2nnn[nH]2)c1` [Example 32, 5-(3-(4-(2-quinolinylmethyloxy)phenoxymethyl)phenoxymethyl)tetrazole], the melting point was 131 to 132 °C.
In the case of `Cc1cc(OCc2ccccc2)cc(OCc2cccc(OCc3ccc4ccccc4n3)c2)c1C(=O)O` [RPR64], in series [2], the “up-regulation of ABC1 expression” value is listed as “up-regulation of ABC1 expression”.
In the case of `COc1cc(C(=O)O)ccc1OCc1cccc(OCc2ccc3ccccc3n2)c1` [Example 15, 3-methoxy-4-(3-(2-quinolinylmethyloxy)benzyloxy)benzoic acid], the melting point is 188 to 190 °C.
Turning to `COC(=O)c1ccc(OCc2cccc(OCc3ccc4ccccc4n3)c2)c(OC)c1` [Example 14, methyl 3-methoxy-4-(3-(2-quinolinylmethyloxy)benzyloxy)-benzoate], the melting point was 100 to 101 °C.
Still for that read-out and setting: the figure for `c1cc(OCc2cccc(-c3nnn[nH]3)c2)cc(OCc2ccc3ccccc3n2)c1` [Example 28, 5-(3-(3-(2-quinolinylmethyloxy)phenoxymethyl)phenyl)tetrazole] is 115 °C (dec.); for `c1ccc2nc(COc3ccc(COc4ccc(Cc5nnn[nH]5)cc4)cc3)ccc2c1` [Example 12, 5-[4(4-(2-quinolinylmethyloxy)benzyloxy)benzyl]tetrazole] it is 179 to 181 °C.
On to `COC(=O)c1cccc(COc2cccc(OCc3ccc4ccccc4n3)c2)c1` [Example 19, methyl 3-(3-(2-quinolinylmethyloxy)phenoxymethyl)benzoate], for which the melting point was 93 to 94 °C.
`O=C(O)c1cccc(COc2cccc(OCc3ccc4ccccc4n3)c2)c1` [Example 20, 3-(3-(2-quinolinylmethyloxy)phenoxymethyl)-benzoic acid] yielded a melting point of 149 to 151 °C.
On the same count and under the same terms, the figure for `c1cc(COc2cccc(-c3nnn[nH]3)c2)cc(OCc2ccc3ccccc3n2)c1` [Example 10, 5-[3-(3-(2-quinolinylmethyloxy)benzyloxy)-phenyl]tetrazole] is 169 to 172 °C.
Consider `c1ccc(Cc2nnn[nH]2)c(COc2ccc(OCc3ccc4ccccc4n3)cc2)c1` [compound of formula VI, 5-[2-(4-(2-quinolinylmethoxy)phenoxymethyl)benzyl]tetrazole], for which the “increase in up-regulation of ABC 1 expression relative to treatment with DMSO” value in series [2] (relative to DMSO) is on record as “fourteen fold increase”.
On to `c1ccc2nc(COc3ccc(COc4ccc(-c5nnn[nH]5)cc4)cc3)ccc2c1` [Example 11, 5-[4-(4-(2-quinolinylmethyloxy)benzyloxy)phenyl]tetrazole], for which the melting point was 210 to 213 °C.
With `Cc1cccc(COc2cccc(OCc3ccc4ccccc4n3)c2)c1C(=O)O` [RPR52], the “up-regulation of ABC1 expression” value in series [2] is “up-regulation of ABC1 expression”.
`c1cc(OCc2ccc3ccccc3n2)cc(OCc2ccccc2-c2nnn[nH]2)c1` [Example 28, 5-(2-(3-(2-quinolinylmethyloxy)phenoxymethyl)phenyl)tetrazole] registered a melting point of 166 to 170 °C.
On to `c1cc(OCc2ccc(Cc3nnn[nH]3)cc2)cc(OCc2ccc3ccccc3n2)c1` [Example 28, 5-(4-(3-(2-quinolinylmethyloxy)phenoxymethyl)benzyl)tetrazole], for which the melting point was 149 to 151 °C.
